Data taken from patent US20260028326A1, “COMPOUND BASED ON ISOINDOLINE-SUBSTITUTED GLUTARIMIDE BACKBONE AND USE THEREOF” (GLUETACS THERAPEUTICS (SHANGHAI) CO., LTD., priority 2022, published 2026).

Legend:
[1] = target: human Cereblon WT GST-tagged protein (Homo sapiens (Human), UniProt Q96SW2); experiment: CRBN-binding affinity, HTRF (CEREBLON BINDING kit)
Method in brief: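 GST-tagged human WT Cereblon incubated with compound, then Thalidomide-Re tracer and anti-GST Eu antibody added. Displacement read by HTRF, reported as CRBN binding inhibition rate against blank control wells without protein.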

IKZF1 protein = IKZF1 protein (Homo sapiens (Human), UniProt Q13422+Q96SW2); experiment: Western-blot assay of substrate protein degradation in hPBMC, IKZF1; format: cell-based; conditions: for residual substrate protein level, IKZF1: hPBMC cells, compound 500 nM, 24 hours, Western blot
Chain of IKZF1 protein (Q13422 whole entry): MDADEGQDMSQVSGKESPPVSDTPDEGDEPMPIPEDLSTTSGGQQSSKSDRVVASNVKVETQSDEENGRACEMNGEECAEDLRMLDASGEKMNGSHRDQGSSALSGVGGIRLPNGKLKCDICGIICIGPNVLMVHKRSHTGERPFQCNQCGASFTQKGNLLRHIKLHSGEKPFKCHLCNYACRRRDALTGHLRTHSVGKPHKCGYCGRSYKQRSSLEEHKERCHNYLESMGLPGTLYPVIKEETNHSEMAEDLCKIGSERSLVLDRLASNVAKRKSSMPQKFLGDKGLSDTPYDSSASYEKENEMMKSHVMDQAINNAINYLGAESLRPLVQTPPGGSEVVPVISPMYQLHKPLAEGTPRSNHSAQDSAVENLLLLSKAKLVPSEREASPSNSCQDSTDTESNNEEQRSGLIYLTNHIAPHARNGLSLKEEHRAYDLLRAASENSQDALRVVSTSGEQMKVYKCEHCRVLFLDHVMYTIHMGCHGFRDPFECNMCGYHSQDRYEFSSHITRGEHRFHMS
Chain of IKZF1 protein (Q96SW2 whole entry): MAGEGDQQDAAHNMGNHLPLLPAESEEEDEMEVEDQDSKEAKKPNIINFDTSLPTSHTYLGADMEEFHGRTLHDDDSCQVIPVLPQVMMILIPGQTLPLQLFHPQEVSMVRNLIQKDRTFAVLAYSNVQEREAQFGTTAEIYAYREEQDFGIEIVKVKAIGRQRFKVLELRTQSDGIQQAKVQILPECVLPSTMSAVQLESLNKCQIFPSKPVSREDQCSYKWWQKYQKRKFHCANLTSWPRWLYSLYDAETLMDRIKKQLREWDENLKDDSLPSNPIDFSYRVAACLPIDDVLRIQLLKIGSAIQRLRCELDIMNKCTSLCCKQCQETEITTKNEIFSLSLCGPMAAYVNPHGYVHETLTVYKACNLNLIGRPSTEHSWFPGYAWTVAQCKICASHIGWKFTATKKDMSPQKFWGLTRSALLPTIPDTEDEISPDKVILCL
Chain of IKZF1 protein (Q16531 whole entry partner): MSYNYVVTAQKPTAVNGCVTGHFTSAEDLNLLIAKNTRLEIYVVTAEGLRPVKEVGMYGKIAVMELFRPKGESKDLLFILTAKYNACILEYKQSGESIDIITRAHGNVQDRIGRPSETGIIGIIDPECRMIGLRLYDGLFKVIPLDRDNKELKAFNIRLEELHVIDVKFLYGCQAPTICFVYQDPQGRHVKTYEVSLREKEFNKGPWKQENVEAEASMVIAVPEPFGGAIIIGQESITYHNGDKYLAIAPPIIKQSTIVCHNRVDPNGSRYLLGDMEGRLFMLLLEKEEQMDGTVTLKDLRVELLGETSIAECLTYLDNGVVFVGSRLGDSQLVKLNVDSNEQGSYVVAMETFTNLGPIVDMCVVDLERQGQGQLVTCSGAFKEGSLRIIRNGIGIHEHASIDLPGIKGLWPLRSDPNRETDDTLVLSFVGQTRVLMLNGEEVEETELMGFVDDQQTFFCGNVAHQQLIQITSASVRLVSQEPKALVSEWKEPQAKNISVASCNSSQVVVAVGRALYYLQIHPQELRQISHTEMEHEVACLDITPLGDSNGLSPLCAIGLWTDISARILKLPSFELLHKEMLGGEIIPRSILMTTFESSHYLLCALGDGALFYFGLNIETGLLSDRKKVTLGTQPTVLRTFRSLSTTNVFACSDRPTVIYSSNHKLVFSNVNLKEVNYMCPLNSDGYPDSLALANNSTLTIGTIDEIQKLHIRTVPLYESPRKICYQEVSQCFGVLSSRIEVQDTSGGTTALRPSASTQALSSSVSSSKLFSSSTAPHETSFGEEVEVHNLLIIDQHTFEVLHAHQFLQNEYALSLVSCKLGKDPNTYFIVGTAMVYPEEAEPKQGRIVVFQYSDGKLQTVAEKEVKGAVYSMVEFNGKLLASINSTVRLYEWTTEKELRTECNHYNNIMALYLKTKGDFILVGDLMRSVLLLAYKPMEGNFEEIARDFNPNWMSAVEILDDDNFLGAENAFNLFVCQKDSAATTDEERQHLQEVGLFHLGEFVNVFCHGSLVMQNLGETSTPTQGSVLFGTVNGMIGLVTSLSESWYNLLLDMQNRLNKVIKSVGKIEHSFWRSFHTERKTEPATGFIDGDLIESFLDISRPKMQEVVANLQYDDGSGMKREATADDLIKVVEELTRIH

IKZF3 protein = IKZF3 protein (Homo sapiens (Human), UniProt Q96SW2+Q9UKT9); experiment: Western-blot assay of substrate protein degradation in hPBMC, IKZF3; format: cell-based; conditions: for residual substrate protein level, IKZF3: hPBMC cells, compound 500 nM, 24 hours, Western blot
Chain of IKZF3 protein (Q9UKT9 whole entry): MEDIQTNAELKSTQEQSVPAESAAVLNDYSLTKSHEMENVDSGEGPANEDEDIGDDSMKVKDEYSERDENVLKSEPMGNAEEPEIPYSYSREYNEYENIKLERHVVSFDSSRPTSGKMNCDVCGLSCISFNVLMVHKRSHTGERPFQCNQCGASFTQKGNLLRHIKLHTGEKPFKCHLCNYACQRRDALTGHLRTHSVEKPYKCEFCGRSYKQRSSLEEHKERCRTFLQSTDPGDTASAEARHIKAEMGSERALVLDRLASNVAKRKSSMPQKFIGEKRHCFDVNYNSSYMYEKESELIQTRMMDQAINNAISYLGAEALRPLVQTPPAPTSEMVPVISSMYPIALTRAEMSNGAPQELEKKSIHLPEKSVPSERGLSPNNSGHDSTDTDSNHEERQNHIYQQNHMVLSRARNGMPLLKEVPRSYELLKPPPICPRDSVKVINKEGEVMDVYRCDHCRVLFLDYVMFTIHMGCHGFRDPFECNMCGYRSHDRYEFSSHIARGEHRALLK
Chain of IKZF3 protein (Q96SW2 whole entry): as the sequence (Q96SW2 whole entry) above
Chain of IKZF3 protein (Q16531 whole entry partner): as the sequence (Q16531 whole entry partner) above

GSPT1 protein = GSPT1 protein (Homo sapiens (Human), UniProt P15170+Q96SW2); experiment: Western-blot assay of substrate protein degradation in hPBMC, GSPT1; format: cell-based; conditions: for residual substrate protein level, GSPT1: hPBMC cells, compound 500 nM, 24 hours, Western blot
Chain of GSPT1 protein (P15170 whole entry): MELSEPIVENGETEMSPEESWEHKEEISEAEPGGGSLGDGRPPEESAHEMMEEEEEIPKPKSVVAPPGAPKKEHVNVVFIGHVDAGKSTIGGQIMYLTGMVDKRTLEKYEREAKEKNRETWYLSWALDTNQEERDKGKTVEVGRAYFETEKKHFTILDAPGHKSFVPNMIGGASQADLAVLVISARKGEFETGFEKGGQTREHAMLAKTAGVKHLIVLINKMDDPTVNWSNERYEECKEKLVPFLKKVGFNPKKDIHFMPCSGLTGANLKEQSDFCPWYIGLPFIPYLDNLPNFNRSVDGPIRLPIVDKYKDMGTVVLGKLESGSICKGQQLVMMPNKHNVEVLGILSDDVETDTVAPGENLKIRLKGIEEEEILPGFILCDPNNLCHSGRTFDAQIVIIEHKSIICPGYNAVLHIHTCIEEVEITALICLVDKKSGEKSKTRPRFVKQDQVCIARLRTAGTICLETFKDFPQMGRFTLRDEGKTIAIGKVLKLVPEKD
Chain of GSPT1 protein (Q96SW2 whole entry): as the sequence (Q96SW2 whole entry) above
Chain of GSPT1 protein (Q16531 whole entry partner): as the sequence (Q16531 whole entry partner) above

MM.1S cells = experiment: Tumor cell proliferation IC50 (CCK-8), MM.1S; conditions: Homo sapiens, MM1.S, 72 h, read-out: IC50 for inhibiting the proliferation of tumor cells, MM.1S;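 further: viability of cultured cells read by CCK-8 reagent after compound exposure, growth inhibition curves fitted to derive IC50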
Mino cells = experiment: Tumor cell proliferation IC50 (CCK-8), Mino; conditions: Homo sapiens, 72 h, read-out: IC50 for inhibiting the proliferation of tumor cells, Mino;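 further: cell viability assessed with CCK-8 reagent after compound exposure, IC50 derived from plotted growth inhibition curves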
[2] = hPBMC, 24 h, serially diluted 0.03-1000 nM

Chain of human Cereblon WT GST-tagged protein (Q96SW2 whole entry): as the sequence (Q96SW2 whole entry) above

Row | Compound | IC50 [1] [nM] | residual substrate protein level, IKZF1 (IKZF1 protein) | residual substrate protein level, IKZF3 (IKZF3 protein) | residual substrate protein level, GSPT1 (GSPT1 protein) | IC50 (MM.1S cells) [nM] | IC50 (Mino cells) [nM] | concentration at which significant degradation effects on IKZF1 protein are exhibited (FIG. 1) (IKZF1 protein; [2]) [nM] | concentration at which significant degradation effects on IKZF3 protein are exhibited (FIG. 1) (IKZF3 protein; [2]) [nM] | concentration at which significant degradation effects on GSPT1 protein are exhibited (FIG. 1) (GSPT1 protein; [2]) [nM]
1 | CC1(C)CCC(C(=O)N2CCC3(CC2)CN(Cc2ccc4c(c2)CN(C2CCC(=O)NC2=O)C4=O)C3)=C(c2ccc(Cl)cc2)C1 (stereo not shown) [GT-05656, 3-(5-((7-(4′-chloro-5,5-dimethyl-3,4,5,6-tetrahydro-[1,1′-biphenyl]-2-carbonyl)-2,7-diazaspiro[3.5]nonan-2-yl)methyl)-1-oxoisoindolin-2-yl)piperidine-2,6-dione] | 700 | B (B represents a residual substrate protein level of >50%) | A (A represents a residual substrate protein level of <50%) | B (B represents a residual substrate protein level of >50%) | 100 to 500 |  |  |  | 
2 | O=C1CCC(N2C(=O)c3ccc(N4C5CCC4CN(Cc4ccccc4-c4ccc(Cl)cc4)C5)cc3C2=O)C(=O)N1 (stereo not shown) [GT-05370, 5-(3-((4′-chloro-[1,1′-biphenyl]-2-yl)methyl)-3,8-diazabicyclo[3.2.1]octan-8-yl)-2-(2,6-dioxopiperidin-3-yl)isoindoline-1,3-dione] |  | B (B represents a residual substrate protein level of >50%) | A (A represents a residual substrate protein level of <50%) | A (A represents a residual substrate protein level of <50%) | < 5 |  |  |  | 
3 | O=C1CCC(N2Cc3cc(CN4C5CCC4CN(C(=O)c4ccccc4-c4ccc(Cl)cc4)C5)ccc3C2=O)C(=O)N1 (stereo not shown) [GT-05788, 3-(5-((3-(4′-chloro-[1,1′-biphenyl]-2-carbonyl)-3,8-diazabicyclo[3.2.1]octan-8-yl)methyl)-1-oxoisoindolin-2-yl)piperidine-2,6-dione] | 500 |  |  |  | 50 to 100 | 100 to 500 |  |  | 
4 | CC1(C)CCC(CN2C3CC2CN(Cc2ccc4c(c2F)CN(C2CCC(=O)NC2=O)C4=O)C3)=C(c2ccc(Cl)cc2)C1 (stereo not shown) [GT-05529, 3-(5-((6-((4′-chloro-5,5-dimethyl-3,4,5,6-tetrahydro-[1,1′-biphenyl]-2-yl)methyl)-3,6-diazabicyclo[3.1.1]heptan-3-yl)methyl)-4-fluoro-1-oxoisoindolin-2-yl)piperidine-2,6-dione] | 350 | A (A represents a residual substrate protein level of <50%) | A (A represents a residual substrate protein level of <50%) | B (B represents a residual substrate protein level of >50%) | 100 to 500 | 500 to 1000 |  |  | 
5 | O=C1CCC(N2Cc3c(ccc(CN4CCN(C(=O)c5ccccc5-c5ccc(Cl)cc5)CC4)c3F)C2=O)C(=O)N1 (stereo not shown) [GT-05649, 3-(5-((4-(4′-chloro-[1,1′-biphenyl]-2-carbonyl)piperazin-1-yl)methyl)-4-fluoro-1-oxoisoindolin-2-yl)piperidine-2,6-dione] | 680 | B (B represents a residual substrate protein level of >50%) | A (A represents a residual substrate protein level of <50%) | B (B represents a residual substrate protein level of >50%) | 100 to 500 | 100 to 500 |  |  | 
6 | CC1(C)CCC(CN2CC3CC(C2)N3Cc2cc(F)c3c(c2)CN(C2CCC(=O)NC2=O)C3=O)=C(c2ccc(Cl)cc2)C1 (stereo not shown) [GT-05383, 3-(5-((3-((4′-chloro-5,5-dimethyl-3,4,5,6-tetrahydro-[1,1′-biphenyl]-2-yl)methyl)-3,6-diazabicyclo[3.1.1]heptan-6-yl)methyl)-7-fluoro-1-oxoisoindolin-2-yl)piperidine-2,6-dione] | 540 | B (B represents a residual substrate protein level of >50%) | B (B represents a residual substrate protein level of >50%) | A (A represents a residual substrate protein level of <50%) | 500 to 1000 |  |  |  | 
7 | O=C1CCC(N2Cc3cc(CN4CCN(C(=O)c5ccccc5-c5ccc(Cl)cc5)CC4)ccc3C2=O)C(=O)N1 (stereo not shown) [GT-03891, 3-(5-((4-(4′-chloro-[1,1′-biphenyl]-2-carbonyl)piperazin-1-yl)methyl)-1-oxoisoindolin-2-yl)piperidine-2,6-dione] | 230 |  |  |  | 100 to 500 | 100 to 500 |  |  | 
8 | CC1(C)CCC(CN2CCN(Cc3ccc4c(c3)CN(C3CCC(=O)NC3=O)C4=O)CC2)=C(c2cnco2)C1 (stereo not shown) [GT-05848, 3-(5-((4-((4,4-dimethyl-2-(oxazol-5-yl)cyclohex-1-en-1-yl)methyl)piperazin-1-yl)methyl)-1-oxoisoindolin-2-yl)piperidine-2,6-dione] | 710 | A (A represents a residual substrate protein level of <50%) | A (A represents a residual substrate protein level of <50%) | B (B represents a residual substrate protein level of >50%) | 50 to 100 | 50 to 100 |  |  | 
9 | Cn1nccc1-c1ccccc1CN1CCN(Cc2ccc3c(c2)CN(C2CCC(=O)NC2=O)C3=O)CC1 (stereo not shown) [GT-05702, 3-(5-((4-(2-(1-methyl-1H-pyrazol-5-yl)benzyl)piperazin-1-yl)methyl)-1-oxoisoindolin-2-yl)piperidine-2,6-dione] | 610 | A (A represents a residual substrate protein level of <50%) | A (A represents a residual substrate protein level of <50%) | A (A represents a residual substrate protein level of <50%) | 100 to 500 | 500 to 1000 |  |  | 
10 | O=C1CCC(N2Cc3cc(CN4CCN(Cc5ccccc5-c5cnco5)CC4)ccc3C2=O)C(=O)N1 (stereo not shown) [GT-05849, 3-(5-((4-(2-(oxazol-5-yl)benzyl)piperazin-1-yl)methyl)-1-oxoisoindolin-2-yl)piperidine-2,6-dione] | 990 | A (A represents a residual substrate protein level of <50%) | A (A represents a residual substrate protein level of <50%) | A (A represents a residual substrate protein level of <50%) | 100 to 500 | 100 to 500 |  |  | 
11 | CC1(C)CCC(CN2CCCN(Cc3ccc4c(c3)CN(C3CCC(=O)NC3=O)C4=O)CC2)=C(c2ccc(Cl)cc2)C1 (stereo not shown) [GT-05396, 3-(5-((4-((4′-chloro-5,5-dimethyl-3,4,5,6-tetrahydro-[1,1′-biphenyl]-2-yl)methyl)-1,4-diazepan-1-yl)methyl)-1-oxoisoindolin-2-yl)piperidine-2,6-dione] | 590 | B (B represents a residual substrate protein level of >50%) | A (A represents a residual substrate protein level of <50%) | A (A represents a residual substrate protein level of <50%) | 100 to 500 |  |  |  | 
12 | O=C1CCC(N2Cc3cc(CN4CCN(Cc5cnc(-c6ccccc6)cn5)CC4)ccc3C2=O)C(=O)N1 (stereo not shown) [GT-05544, 3-(1-oxo-5-((4-((5-phenylpyrazin-2-yl)methyl)piperazin-1-yl)methyl)isoindolin-2-yl)piperidine-2,6-dione] | 840 | A (A represents a residual substrate protein level of <50%) | A (A represents a residual substrate protein level of <50%) | B (B represents a residual substrate protein level of >50%) | 100 to 500 | 5 to 10 |  |  | 
13 | O=C1CCC(N2Cc3cc(CN4CCN(Cc5ccc(-c6ccc(Cl)cn6)cc5)CC4)ccc3C2=O)C(=O)N1 (stereo not shown) [GT-05872, 3-(5-((4-(4-(5-chloropyridin-2-yl)benzyl)piperazin-1-yl)methyl)-1-oxoisoindolin-2-yl)piperidine-2,6-dione] |  | A (A represents a residual substrate protein level of <50%) | B (B represents a residual substrate protein level of >50%) | B (B represents a residual substrate protein level of >50%) | 500 to 1000 |  |  |  | 
14 | CC1(C)CCC(CN2CCC3(CC2)CN(Cc2ccc4c(c2)CN(C2CCC(=O)NC2=O)C4=O)C3)=C(c2ccc(Cl)cc2)C1 (stereo not shown) [GT-05677, 3-(5-((7-((4′-chloro-5,5-dimethyl-3,4,5,6-tetrahydro-[1,1′-biphenyl]-2-yl)methyl)-2,7-diazaspiro[3.5]nonan-2-yl)methyl)-1-oxoisoindolin-2-yl)piperidine-2,6-dione] | 1230 | A (A represents a residual substrate protein level of <50%) | A (A represents a residual substrate protein level of <50%) | B (B represents a residual substrate protein level of >50%) | 50 to 100 |  |  |  | 
15 | O=C1CCC(N2Cc3cc(CN4CCN(Cc5ccc(-c6cccs6)cc5)CC4)ccc3C2=O)C(=O)N1 (stereo not shown) [GT-05640, 3-(1-oxo-5-((4-(4-(thiophen-2-yl)benzyl)piperazin-1-yl)methyl)isoindolin-2-yl)piperidine-2,6-dione] | 390 | A (A represents a residual substrate protein level of <50%) | A (A represents a residual substrate protein level of <50%) | B (B represents a residual substrate protein level of >50%) | 100 to 500 | 10 to 50 | < 3 | < 3 | < 3
